Common to all, as to test: inhibition of tumour cell growth, NCI panel, 48 h
In assay [1] the test system is SK-MEL-28 melanoma.
Assay [2] deals with M14 melanoma.
The subject of assay [3] is A498 renal.
Assay [4] deals with SK-MEL-2 melanoma.
Assay [5] relates to NCI/ADR-RES ovarian.
Assay [6] relates to T-47D breast.
For assay [7], the system named is UACC-257 melanoma.
Assay [8] deals with HS 578T breast.
Assay [9] relates to CCRF-CEM leukemia.
For assay [10], the system named is K-562 leukemia.

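Cultured in 96-well plates, cells were exposed to test compound for 48 hours across five concentrations. GI50 marks 50% less growth. TGI is the concentration that stops growth completely.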 *1 amine or outer side, *2 acyl side, *3 side chain or, on linkers, in order; H or OH if unused. Where a SMILES comes first, the peptide text is derived from it. Bridges are numbered along the chain shown (N, C = ends). Roman numbers before positions name the chains, in order. [ ]: non-standard residue; d: D form. ξ: configuration not given here. X54 = N=C(N)NCCC[C@@H](NC(=N)CCCCCCC(=N)N[C@H](CCCNC(=N)N)C(=O)[*:2])C(=O)[*:1]; dIgl = N[C@@H](C(=O)O)C1Cc2ccccc2C1; Hyp = O=C(O)[C@@H]1C[C@@H](O)CN1; ξIgl = NC(C(=O)O)C1Cc2ccccc2C1; ξOic = O=C(O)C1CC2CCCCC2N1; ξR = N=C(N)NCCCC(N)C(=O)O; ξP = O=C(O)C1CCCN1; ξS = NC(CO)C(=O)O

Regarding `CN1CCN(C(=O)CCC(=O)Nc2cc3c(c4ccccc24)-c2ccc4ccccc4c2C3)CC1`, the TGI in assay [1] stood at 3.26 µM; in assay [2], 2.97 µM; in [3], 27.6 µM; in assay [4], 3.65 µM; in [5], 4.55 µM; in assay [6], 3.57 µM. In addition, the TGI in assay [7] turned out to be 3.24 µM; in assay [8] it was 5.81 µM.
In the case of `N=C(N)NCCCC(NC(=O)C1CC2CCCCC2N1C(=O)[C@H](NC(=O)C(CO)NC(=O)C(NC(=O)CNC(=O)[C@@H]1C[C@@H](O)CN1C(=O)C1CCCN1C(=O)C(CCCNC(=N)N)NC(=O)[C@@H](CCCNC(=N)N)NC(=N)CCCCCCC(=N)N[C@H](CCCNC(=N)N)C(=O)NC(CCCNC(=N)N)C(=O)N1CCCC1C(=O)N1C[C@H](O)C[C@H]1C(=O)NCC(=O)NC(C(=O)NC(CO)C(=O)N[C@@H](C(=O)N1C(C(=O)NC(CCCNC(=N)N)C(=O)O)CC2CCCCC21)C1Cc2ccccc2C1)C1Cc2ccccc2C1)C1Cc2ccccc2C1)C1Cc2ccccc2C1)C(=O)O` (stereo partly drawn) (I: [ξR][ξP][Hyp]G[ξIgl][ξS][dIgl][ξOic][ξR]-OH / II: [ξR][ξP][Hyp]G[ξIgl][ξS][dIgl][ξOic][ξR]-OH; linker I:N-II:N via X54), the TGI was 3.64 µM in [1]; 8.81 µM in assay [9]; 7.23 µM in [2]; 6.77 µM in assay [4]; 4.03 µM in assay [10]; above 10 µM in assay [5]. Also, the TGI in assay [6] is 4.42 µM; in assay [7], above 10 µM; in assay [8] it was 6.82 µM.
On to `Fc1ccc(-c2sc(-c3ccsc3)cc2Cc2ccsc2)cc1`, for which the TGI in assay [1], in assay [9], in [2], in assay [10], in assay [6] and in assay [7] was above 10 µM in each case.
As for `Cc1ccc(Cc2cc(N3CCN(c4cccc(Cl)c4)CC3)nnc2C)cc1`, the TGI in assay [1], in assay [2], in assay [3], in [4], in [5] and in assay [6] was above 100 µM throughout. For the same compound, the TGI in assay [7] and in assay [8] was above 100 µM throughout.
Consider `CC1(C)OC[C@H](C(=N)OCc2ccccc2)O1`, for which the TGI in [1], in assay [9], in assay [2], in [3], in assay [4] and in assay [10] was above 100 µM each time. In assay [7], the TGI was above 100 µM.
As for `O=c1[nH]c(=O)c2ncn(-c3ccc([N+](=O)[O-])cn3)c2[nH]1`, the TGI in assay [1], in assay [9], in [2], in [3], in [4] and in [10] was above 100 µM throughout. Besides, the TGI in assay [5], in [6] and in assay [7] was above 100 µM in each case.
`CNC(=O)N(CCC#N)CCN(C(=O)NC)c1ccccc1`: the TGI in assay [1], in [9], in assay [2], in [3], in assay [4] and in assay [10] was above 100 µM throughout. Besides, the TGI in [5], in assay [6] and in assay [7] was above 100 µM throughout.
Consider `O=C1/C(=C/c2ccc(Cl)cc2)Oc2cc(O)ccc21`, for which the TGI in assay [1] is above 100 µM; in [9], 52 µM; in assay [2], above 100 µM; in assay [10] it was 38.5 µM; in [5], 79.3 µM; in [6], above 100 µM. In addition, the TGI in assay [7] was 90.1 µM; in [8], 46.6 µM.
With `CC[C@@]1(O)C[C@H](OC2CC(N(C)C)C(O)C(C)O2)c2c(cc3c(c2O)C(=O)c2c(O)ccc(O)c2C3=O)[C@H]1C(=O)OC` (stereo partly drawn), the TGI in assay [1] turned out to be 0.462 µM; in assay [9], 0.603 µM; in [3], 0.239 µM; in assay [4], 0.354 µM; in assay [10], 0.472 µM; in [5], 0.619 µM. For the same compound, in assay [7], the TGI was 0.317 µM.
Take `Nc1nc(Cl)cc(OCC2(CO)CCCC2)n1`: the TGI in [1], in [9], in assay [3], in [10], in assay [5] and in assay [7] was above 100 µM each time. In assay [8], this compound had a TGI above 100 µM.
Take `O[C@@H]1C[C@H](Cl)c2c(Cl)sc(Cl)c21`: the TGI in assay [1], in assay [9], in assay [2], in assay [4], in assay [10] and in [5] was above 100 µM throughout. Besides, the TGI in [6], in [7] and in assay [8] was above 100 µM throughout.
Consider `CC1=NN(C(=O)Cc2ccccc2)C(=O)/C1=C\c1ccc([N+](=O)[O-])cc1`, for which the TGI in [1], in assay [9], in assay [2], in assay [3], in assay [4] and in assay [10] was above 100 µM in each case. For the same compound, the TGI in assay [7] was above 100 µM.
Regarding `CN(C)CCNC(=O)c1cccc2ccc(-c3ccc(Br)cc3)nc12`, the TGI in assay [1] was 13.2 µM; in [9], 7.75 µM; in [3] it was 5.49 µM; in assay [4] it was 9.25 µM; in assay [10], 9.2 µM; in assay [5] it was 5.89 µM. Further, the TGI in assay [7] was determined as 10.7 µM.
As to `CCC12CCCN(Cc3ccccc3)C1c1c(n(C)c3ccccc13)C(CO)C2` (stereo not drawn), the TGI in assay [1] was 150 µM; in [9], above 257 µM; in assay [4] it was 107 µM; in [10], 107 µM; in assay [7], 95.1 µM.
For `CCC(C)(C)c1cc(O)c(C(C)(C)CC)cc1O`, the GI50 was 2.82 µM in assay [1]; 0.732 µM in assay [3]; 1.85 µM in assay [4]; 2.96 µM in [5]; 4.56 µM in assay [6]; 3.44 µM in assay [7]. The TGI in [1] was found to be 10.9 µM; in [3], 8.5 µM; in [4], 4.33 µM; in assay [5] it was 11.3 µM; in assay [6], 19.5 µM; in [7] it was 12.1 µM.

The values above are taken from PubChem BioAssay (NCI).
